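In this assay, cells in 96-well plates receive the compound at five concentrations for 48 hours. Endpoints are linearly interpolated between the surrounding concentrations. TGI denotes the concentration required for complete inhibition of growth.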
What follows are molecules tested on A549 NSCLC (assay: NCI anticancer screen, dose series, 48 h).

For `CCOc1cccc(C=Nc2ccccc2SSc2ccccc2N=Cc2cccc(OCC)c2O)c1O`, which TGI is on record?
The TGI was 26.6 µM.

`Cc1c2c(cc3c1C(=O)C(=O)C([C@@H](C)CO)=C3O)C(C)(C)CCC2` was tested. Which TGI did it give?
Its TGI is over 100 µM.

For `C[N+]12CCCCC1C(COc1cccc3cccnc13)CCC2` (stereo unspecified), which TGI is on record?
The TGI was over 100 µM.

For `Cc1ccc(S(=O)(=O)NC(=O)NCc2ccc(S(N)(=O)=O)cc2)cc1`, which TGI is on record?
Its TGI is over 100 µM.

`NC(=O)NC1NC(=O)NC1=O` (stereo unspecified) was tested. Which TGI did it give?
The TGI was over 100 µM.

For `CC[C@@]1(O)C(=O)OCc2c1cc1n(c2=O)Cc2c-1nc1ccccc1c2/C=N\NC(=O)C[n+]1ccccc1`, which TGI is on record?
Its TGI is over 100 µM.

How did the TGI turn out when `COc1ccccc1C[C@@H]1OC2(C=CC(=O)CC2SC(=O)c2ccccc2)O[C@H]1Cc1ccccc1OC` (stereo partly specified) was run?
The TGI was 8.67 µM.

`COc1ccc(CC2Cc3ccccc3CCN2)cc1OC` (stereo unspecified) was tested. Which TGI did it give?
Its TGI is over 50 µM.

`CN(C)CCn1c(=O)c2ccc(NCCNCCO)c3c(=O)c4ccccc4n(c1=O)c23` was tested. Which TGI did it give?
The TGI was 3.16 µM.

`OCC1OC(NC(=S)NCCC(F)(F)C(F)(F)C(F)(F)C(F)(F)C(F)(F)C(F)(F)F)C(O)C(O)C1O` (stereo unspecified) was tested. Which TGI did it give?
The TGI was over 100 µM.

How did the TGI turn out when `CSC1=N/C(=C\c2ccc(C)cc2)C(=O)N1` was run?
The TGI was over 100 µM.

With `COc1cc2c(cc1OCCCNC(=O)c1cc3ccccc3[nH]1)N=C[C@@H]1CCCN1C2=O` as the molecule, how does the TGI read?
Its TGI is over 100 µM.

Which TGI does the source give for `CC1=CC[C@H](C[C@H](C#CCCCC2OCCO2)O[Si](C(C)C)(C(C)C)C(C)C)C(=O)CC1` here?
The TGI was over 100 µM.

How did the TGI turn out when `CC1=NN(c2cccc(S(=O)(=O)O)c2)C2(C1)C(Cl)C(=O)N2c1nc2ccccc2s1` (stereo unspecified) was run?
The TGI was 26.4 µM.

With `[O-][n+]1nc(N2CCOCC2)nc2ccccc21` as the molecule, how does the TGI read?
Its TGI is over 100 µM.

Which TGI does the source give for `Cc1sc2nc(N(C)C)oc(=O)c2c1C` here?
Its TGI is over 100 µM.

With `Cc1cccc(N/C(=C(/C(Cl)=C(Cl)Cl)[N+](=O)[O-])n2nnc3ccccc32)c1` as the molecule, how does the TGI read?
Its TGI is 36 µM.

For `NC(CSS(=O)(=O)O)=NC1CC2CCC1C2` (stereo unspecified), which TGI is on record?
Its TGI is over 100 µM.

With `CN1CCC23c4c5ccc(Oc6nnnn6-c6ccccc6)c4OC2c2[nH]c4ccccc4c2CC3(O)C1C5` (stereo unspecified) as the molecule, how does the TGI read?
The TGI was 13.1 µM.

Which TGI does the source give for `Cc1cn(C2OC(CO[Si](C)(C)C(C)(C)C)/C(=C\C#N)C2O[Si](C)(C)C(C)(C)C)c(=O)[nH]c1=O` (stereo unspecified) here?
The TGI was over 100 µM.

How did the TGI turn out when `C[C@]12CCC(O)CC1=CC[C@@H]1[C@@H]2CC[C@]2(C)C(O)[C@H](n3ccnc3)C[C@@H]12` (stereo partly specified) was run?
Its TGI is over 100 µM.

Which TGI does the source give for `O=C(CC(O)(C(F)(F)F)C(F)(F)F)C(c1ccccc1)C(O)(C(F)(F)F)C(F)(F)F` (stereo unspecified) here?
Its TGI is over 100 µM.

`CC(C)CCCC(C)[C@H]1CC[C@H]2n3c(nnc3-c3ccccc3)CCC[C@]12C` (stereo partly specified) was tested. Which TGI did it give?
Its TGI is 28 µM.

`OC1=C2c3ccccc3NC2Oc2cc(F)ccc21` (stereo unspecified) was tested. Which TGI did it give?
The TGI was 52.7 µM.

What follows are molecules tested on ACHN renal (assay: NCI anticancer screen, dose series, 48 h).

With `CCOc1cccc(C=Nc2ccccc2SSc2ccccc2N=Cc2cccc(OCC)c2O)c1O` as the molecule, how does the TGI read?
Its TGI is 29.3 µM.

`C[N+]12CCCCC1C(COc1cccc3cccnc13)CCC2` (stereo unspecified) was tested. Which TGI did it give?
Its TGI is over 100 µM.

How did the TGI turn out when `Cc1ccc(S(=O)(=O)NC(=O)NCc2ccc(S(N)(=O)=O)cc2)cc1` was run?
The TGI was over 100 µM.

With `NC(=O)NC1NC(=O)NC1=O` (stereo unspecified) as the molecule, how does the TGI read?
Its TGI is over 100 µM.

With `CC[C@@]1(O)C(=O)OCc2c1cc1n(c2=O)Cc2c-1nc1ccccc1c2/C=N\NC(=O)C[n+]1ccccc1` as the molecule, how does the TGI read?
Its TGI is 1.27 µM.

How did the TGI turn out when `COc1ccccc1C[C@@H]1OC2(C=CC(=O)CC2SC(=O)c2ccccc2)O[C@H]1Cc1ccccc1OC` (stereo partly specified) was run?
Its TGI is 3.5 µM.

With `CN(C)CCn1c(=O)c2ccc(NCCNCCO)c3c(=O)c4ccccc4n(c1=O)c23` as the molecule, how does the TGI read?
Its TGI is 15.9 µM.

`OCC1OC(NC(=S)NCCC(F)(F)C(F)(F)C(F)(F)C(F)(F)C(F)(F)C(F)(F)F)C(O)C(O)C1O` (stereo unspecified) was tested. Which TGI did it give?
Its TGI is over 100 µM.

How did the TGI turn out when `CSC1=N/C(=C\c2ccc(C)cc2)C(=O)N1` was run?
Its TGI is over 100 µM.

For `COc1cc2c(cc1OCCCNC(=O)c1cc3ccccc3[nH]1)N=C[C@@H]1CCCN1C2=O`, which TGI is on record?
Its TGI is over 100 µM.

`COC(=O)/C(C)=N/NC(=S)SC` was tested. Which TGI did it give?
Its TGI is over 100 µM.

Which TGI does the source give for `CC1=CC[C@H](C[C@H](C#CCCCC2OCCO2)O[Si](C(C)C)(C(C)C)C(C)C)C(=O)CC1` here?
Its TGI is over 100 µM.

`CC1=NN(c2cccc(S(=O)(=O)O)c2)C2(C1)C(Cl)C(=O)N2c1nc2ccccc2s1` (stereo unspecified) was tested. Which TGI did it give?
The TGI was 18.4 µM.

For `[O-][n+]1nc(N2CCOCC2)nc2ccccc21`, which TGI is on record?
Its TGI is over 100 µM.

Which TGI does the source give for `COc1ccc(NC(=S)Nc2cc(C)ccn2)cc1` here?
Its TGI is over 100 µM.

With `Cc1sc2nc(N(C)C)oc(=O)c2c1C` as the molecule, how does the TGI read?
Its TGI is over 100 µM.

Which TGI does the source give for `Cc1cccc(N/C(=C(/C(Cl)=C(Cl)Cl)[N+](=O)[O-])n2nnc3ccccc32)c1` here?
The TGI was 63.1 µM.

`NC(CSS(=O)(=O)O)=NC1CC2CCC1C2` (stereo unspecified) was tested. Which TGI did it give?
The TGI was over 100 µM.

`CN1CCC23c4c5ccc(Oc6nnnn6-c6ccccc6)c4OC2c2[nH]c4ccccc4c2CC3(O)C1C5` (stereo unspecified) was tested. Which TGI did it give?
Its TGI is 3.52 µM.

With `Cc1cn(C2OC(CO[Si](C)(C)C(C)(C)C)/C(=C\C#N)C2O[Si](C)(C)C(C)(C)C)c(=O)[nH]c1=O` (stereo unspecified) as the molecule, how does the TGI read?
The TGI was over 100 µM.

How did the TGI turn out when `C[C@]12CCC(O)CC1=CC[C@@H]1[C@@H]2CC[C@]2(C)C(O)[C@H](n3ccnc3)C[C@@H]12` (stereo partly specified) was run?
The TGI was over 100 µM.

Which TGI does the source give for `O=C(CC(O)(C(F)(F)F)C(F)(F)F)C(c1ccccc1)C(O)(C(F)(F)F)C(F)(F)F` (stereo unspecified) here?
The TGI was 79.5 µM.

For `OC1=C2c3ccccc3NC2Oc2cc(F)ccc21` (stereo unspecified), which TGI is on record?
The TGI was 46.7 µM.

These molecules were tested on COLO 205 colon (assay: NCI anticancer screen, dose series, 48 h).

`CCOc1cccc(C=Nc2ccccc2SSc2ccccc2N=Cc2cccc(OCC)c2O)c1O` was tested. Which TGI did it give?
The TGI was 12.4 µM.

With `Cc1c2c(cc3c1C(=O)C(=O)C([C@@H](C)CO)=C3O)C(C)(C)CCC2` as the molecule, how does the TGI read?
Its TGI is over 100 µM.

For `C[N+]12CCCCC1C(COc1cccc3cccnc13)CCC2` (stereo unspecified), which TGI is on record?
The TGI was over 100 µM.

For `Cc1ccc(S(=O)(=O)NC(=O)NCc2ccc(S(N)(=O)=O)cc2)cc1`, which TGI is on record?
The TGI was over 100 µM.

Which TGI does the source give for `NC(=O)NC1NC(=O)NC1=O` (stereo unspecified) here?
The TGI was over 100 µM.

How did the TGI turn out when `CC[C@@]1(O)C(=O)OCc2c1cc1n(c2=O)Cc2c-1nc1ccccc1c2/C=N\NC(=O)C[n+]1ccccc1` was run?
The TGI was over 100 µM.

For `COc1ccccc1C[C@@H]1OC2(C=CC(=O)CC2SC(=O)c2ccccc2)O[C@H]1Cc1ccccc1OC` (stereo partly specified), which TGI is on record?
The TGI was 3.16 µM.

Which TGI does the source give for `COc1ccc(CC2Cc3ccccc3CCN2)cc1OC` (stereo unspecified) here?
Its TGI is 21.4 µM.

With `CN(C)CCn1c(=O)c2ccc(NCCNCCO)c3c(=O)c4ccccc4n(c1=O)c23` as the molecule, how does the TGI read?
The TGI was 0.836 µM.
